The source of these data is patent US20260242320A1, “USE OF CANNABIDIOL DERIVATIVE IN PREPARATION OF MEDICAMENT” (priority 2023, published 2026).

Each structure is given as a SMILES string. “Also recorded” adds a separate entry of the source.

In general, Kd refers to the constant that tells how readily two partners part at equilibrium. Broadly, the IC50 is the concentration that gives 50% inhibition.

For assay [1], the system named is 3×Tg Alzheimer's disease mice. Briefly: Learning and memory tests in Alzheimer's disease model mice (Morris water maze, Y-maze). Type of assay: in vivo. Conditions: i.p., 45 days. The text has this:
For Alzheimer's disease behavioral experiments (Morris water maze, open field experiment, novel object recognition, Y-maze, and elevated cross maze), triple transgenic mouse models (B6:129-Psen1tm1Mpm Tg (APPswe, tauP301L) 1Lfa/J, 3×Tg) were purchased from the Jax Laboratory in the United States. The wild-type mice (C57BL/6J, WT) were purchased from Beijing Vital River Laboratory Animal Technology Co., Ltd. After 45 days of intraperitoneal injection of CIAC001, all mice were subjected to subsequent behavioral experiments. In order to minimize the use of mice, the mice are first tested for sufficient physical strength and normal mental states. Only one behavioral experiment is conducted per day based on the following schedule: day 1: open field test; day 2-3: novel object recognition; day 3: elevated plus maze; day 4: Y-maze; day 5-13: Morris water maze. […]
Place navigation training was performed from days 1 to 5. […] The time taken for the mouse to find the platform was recorded, representing the mouse's escape latency. […]
The spatial exploration test was conducted 24 hours and 72 hours after completion of place navigation training. The test conducted at 24 hours assessed short-term memory, while the test performed at 72 hours assessed long-term memory. […]

Assay [2] concerns morphine-treated mice. Briefly: Morphine-induced behavioral sensitization. Conditions: 0.2 mg/kg i.p. Type of assay: in vivo. As for the experimental part: Mice were placed into the test chamber (40×40×40 cm^3) for 60 min to habituate the chamber for three consecutive days. […] Locomotor activity was recorded daily for 60 min after the administration of drugs. Next, all the mice were subjected to a 7-day withdrawal period (days 8-14). Subsequently, mice were given morphine (5 mg/kg, i.p.), and locomotor activity was recorded to determine behavioral sensitization.

Assay [3] deals with PKM2 protein (Homo sapiens, UniProt P14618). Briefly: Fluorescence titration of purified PKM2. Type of assay: binding. Conditions: PKM2 0.5 μM. As for the experimental part:
PKM2 protein (0.5 μM) was titrated with increasing concentrations of CIAC001, and the fluorescence intensity (λex 280 nm; λem 337 nm) was recorded by a fluorescence spectrophotometer (Cary Eclipse, Agilent Technologies Inc., USA). Appropriate controls were subtracted from the spectra obtained from the samples. The data were fitted by the nonlinear least squares method using Equation 8, derived from equations 1-7.
Because [LP2]^3 is far less than (LT+PT)×[LP2]^2, Equation 6 can be simplified as Equation 7, allowing derivation of Equation 8: […]
where F is the measured fluorescence; F0 is the initial fluorescence of PKM2 in the absence of CIAC001; FPL is an adjustable parameter for protein-ligand complex molar fluorescence; KD is the dissociation constant; LT is the total concentration of CIAC001; and PT is the total PKM2 concentration. The stoichiometry n was fitted according to the equation […].

The target in assay [4] is T1, CB2 Receptor (Homo sapiens, UniProt P34972).
T1 construct: expressed in transfected cells; host or cells: GloSensor 22-F HEK293 cells
Briefly: cAMP measurement, forskolin-induced cAMP accumulation, CB2. It is filed as cell-based. As to conditions: cAMP assay. As for the experimental part:
GloSensor 22-F HEK293 cells were transfected with plasmids encoding different receptors (CB1 and CB2). After 24 h, HEK293 cells were seeded at a density of 5×10^4 cells per well in 96-well plates and incubated for 8 h; then, the medium was removed, and 200 μL of serum-free DMEM medium containing 2% GloSensor cAMP substrate (Promega) was added. After 2 h incubation, the transfected cells were stimulated with different concentrations of ligands together with […]. The luminescence was recorded using a Multimode Plate Reader (En Vision, PerkinElmer).
In general terms: cAMP levels reflect the balance of adenylyl cyclase and phosphodiesterase activity.

Assay [5] concerns LPS-induced proinflammatory factor nitric oxide (NO) in immunocompetent BV-2 cells. Briefly: NO assay: inhibition of LPS-induced NO overproduction in BV-2 cells. It is filed as cell-based. Conditions: Mus musculus; BV-2 cells, LPS 200 ng/mL, 24 h; read-out: Antineuroinflammatory activity (IC50 inhibiting LPS-induced NO). As for the experimental part:
BV-2 cells were seeded at a density of 5×10^4 cells per milliliter in 96-well plates. After 24 h incubation, the media was removed and changed to DMEM without FBS and penicillin-streptomycin. LPS (200 ng/mL) and different concentrations of compounds were added. After 24 h treatment, 100 μL of media was transferred to flat black 96-well micro fluor plates, and then, 10 μL of 0.05 mg/mL 2,3-diaminonaphthalene was added and incubated in the dark for 15 min. 5 μL of NaOH (3 M) was subsequently added to each well to quench the reaction. NO inhibition ratio was analyzed by a SYNERGY H1 Microplate Reader (BioTek Instruments, Carlsbad, CA, USA) with excitation at 360 nm and emission at 430 nm. The fluorescence value of the LPS-treated group was set as 100%.

PKM2 protein, sequence (P14618 whole entry, species assumed): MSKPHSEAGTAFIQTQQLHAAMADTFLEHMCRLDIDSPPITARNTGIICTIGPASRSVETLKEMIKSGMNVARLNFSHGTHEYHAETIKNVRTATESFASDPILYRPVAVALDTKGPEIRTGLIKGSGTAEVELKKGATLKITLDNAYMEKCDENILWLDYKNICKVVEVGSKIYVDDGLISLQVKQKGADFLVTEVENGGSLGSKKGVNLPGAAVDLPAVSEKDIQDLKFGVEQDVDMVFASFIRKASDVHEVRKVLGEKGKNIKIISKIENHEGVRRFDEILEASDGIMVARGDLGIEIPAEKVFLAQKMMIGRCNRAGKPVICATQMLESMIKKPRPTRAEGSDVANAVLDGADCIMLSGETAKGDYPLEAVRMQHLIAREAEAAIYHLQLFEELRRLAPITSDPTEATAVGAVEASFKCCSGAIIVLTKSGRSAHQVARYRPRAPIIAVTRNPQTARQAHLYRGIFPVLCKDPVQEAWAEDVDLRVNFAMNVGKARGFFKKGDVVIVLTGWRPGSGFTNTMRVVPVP
T1 sequence (P34972 whole entry): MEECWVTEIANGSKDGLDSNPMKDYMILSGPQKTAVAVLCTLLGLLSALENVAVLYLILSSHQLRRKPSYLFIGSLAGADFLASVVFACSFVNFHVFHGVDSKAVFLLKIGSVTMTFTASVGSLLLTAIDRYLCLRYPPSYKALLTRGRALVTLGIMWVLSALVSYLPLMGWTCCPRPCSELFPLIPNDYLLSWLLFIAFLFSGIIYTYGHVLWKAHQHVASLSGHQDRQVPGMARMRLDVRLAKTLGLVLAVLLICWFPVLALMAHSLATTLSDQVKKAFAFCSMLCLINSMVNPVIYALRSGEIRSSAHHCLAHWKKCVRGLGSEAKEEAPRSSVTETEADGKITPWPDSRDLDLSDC

Take `C=C(C)[C@@H]1CCC(C)=C[C@H]1c1c(O)cc(C(C)n2nccn2)cc1O` (stereo partly drawn) [CIAC001, (1′R,2′R)-4-(1-(2H-1,2,3-Triazol-2-yl)ethyl)-5′-methyl-2′-(prop-1-en-2-yl)-1′,2′,3′,4′-tetrahydro-[1,1′-biphenyl]-2,6-diol]: the “learning and memory abilities of Alzheimer's disease mice” value in assay [1] was “improves learning and memory abilities of Alzheimer's disease mice at a lower dose than cannabidiol”. Further, in assay [2] (day 15), the “locomotor response to morphine challenge (expression of behavioral sensitization)” value is “decreased the locomotor response”. Moreover, the “development of morphine-induced behavioral sensitization (induction period)” value in assay [2] (mice) is on record as “significantly inhibited; also recorded: ameliorated”. For the same molecule, the “stoichiometry of CIAC001-PKM2 interaction” value in assay [3] is 0.54±0.07. Moreover, the Kd in assay [3] (intrinsic fluorescence quenching, read-out: dissociation constant KD) came out at 2200 ± 200 nM. Also, the “CB2 receptor activity” value in assay [4] was “no apparent CB1/CB2 activity”. For the same molecule, the IC50 in assay [5] amounted to 2500 ± 700 nM.
